Test results reported in ChEMBL document CHEMBL1201862, “PubChem BioAssay data set” (2004).
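1) Cells in 96-well plates. 2) Compound, 48 h, 5 concentrations. 3) Linear interpolation between surrounding doses. 4) Unreached endpoint = highest concentration. GI50: concentration for 50% inhibition of growth.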 Active and inactive are the calls of the source. Rule as the data show it: active = GI50 up to about 1.1 µM and inactive = higher.

Tests used:
Assay in all cases: NCI anticancer screen, dose series, 48 h
[1] = system: 786-0
[2] = system: A498
[3] = system: A549
[4] = system: ACHN
[5] = system: CAKI-1
[6] = system: CCRF-CEM
[7] = system: DU-145
[8] = system: EKVX
[9] = system: HCC 2998
[10] = system: HCT-116
[11] = system: HCT-15
[12] = system: HL-60
[13] = system: HOP-62
[14] = system: HOP-92
[15] = system: HT-29
[16] = system: Hs-578T
[17] = system: IGROV-1
[18] = system: K562
[19] = system: LOX IMVI
[20] = system: M14
[21] = system: MCF7
[22] = system: MDA-MB-231
[23] = system: MDA-MB-435
[24] = system: MDA-N
[25] = system: MOLT-4
[26] = system: Malme-3M
[27] = system: NCI-H23
[28] = system: NCI-H460
[29] = system: NCI-H522
[30] = system: NCI/ADR-RES
[31] = system: OVCAR-3
[32] = system: OVCAR-4
[33] = system: OVCAR-5
[34] = system: OVCAR-8
[35] = system: PC-3
[36] = system: RPMI-8226
[37] = system: RXF 393
[38] = system: SF-268
[39] = system: SF-295
[40] = system: SF-539
[41] = system: SK-MEL-28
[42] = system: SK-MEL-2
[43] = system: SK-MEL-5
[44] = system: SK-OV-3
[45] = system: SNB-19
[46] = system: SNB-75
[47] = system: SR
[48] = system: SW-620
[49] = system: T47D
[50] = system: TK-10
[51] = system: U-251
[52] = system: UACC-257
[53] = system: UO-31
[54] = system: COLO 205
[55] = system: NCI-H226
[56] = system: SN12C
[57] = system: UACC-62

## COC(=O)c1ccc2c(c1)CC1(C2)Cc2cc3c(cc2C1)CCC3
[1]
  GI50: > 100 µM (inactive)
[2]
  GI50: > 100 µM (inactive)
[3]
  GI50: > 100 µM (inactive)
[4]
  GI50: > 100 µM (inactive)
[5]
  GI50: > 100 µM (inactive)
[6]
  GI50: > 100 µM (inactive)
[7]
  GI50: > 100 µM (inactive)
[8]
  GI50: > 100 µM (inactive)
[9]
  GI50: > 100 µM (inactive)
[10]
  GI50: > 100 µM (inactive)
[11]
  GI50: > 100 µM
[12]
  GI50: > 100 µM (inactive)
[13]
  GI50: > 100 µM (inactive)
[14]
  GI50: > 100 µM (inactive)
[15]
  GI50: > 100 µM (inactive)
[16]
  GI50: > 100 µM (inactive)
[17]
  GI50: > 100 µM (inactive)
[18]
  GI50: > 100 µM (inactive)
[19]
  GI50: > 100 µM (inactive)
[20]
  GI50: > 100 µM (inactive)
[21]
  GI50: > 100 µM (inactive)
[22]
  GI50: > 100 µM (inactive)
[23]
  GI50: > 100 µM (inactive)
[24]
  GI50: > 100 µM (inactive)
[25]
  GI50: > 100 µM (inactive)
[26]
  GI50: 79.6 µM (inactive)
[27]
  GI50: > 100 µM (inactive)
[28]
  GI50: > 100 µM (inactive)
[29]
  GI50: > 100 µM (inactive)
[30]
  GI50: > 100 µM (inactive)
[31]
  GI50: > 100 µM (inactive)
[32]
  GI50: > 100 µM (inactive)
[33]
  GI50: > 100 µM (inactive)
[34]
  GI50: > 100 µM (inactive)
[35]
  GI50: > 100 µM (inactive)
[36]
  GI50: > 100 µM (inactive)
[37]
  GI50: > 100 µM (inactive)
[38]
  GI50: > 100 µM (inactive)
[39]
  GI50: > 100 µM (inactive)
[40]
  GI50: > 100 µM (inactive)
[41]
  GI50: > 100 µM (inactive)
[42]
  GI50: 98.2 µM (inactive)
[43]
  GI50: > 100 µM (inactive)
[44]
  GI50: > 100 µM (inactive)
[45]
  GI50: > 100 µM (inactive)
[46]
  GI50: > 100 µM (inactive)
[47]
  GI50: > 100 µM (inactive)
[48]
  GI50: > 100 µM (inactive)
[49]
  GI50: > 100 µM (inactive)
[50]
  GI50: > 100 µM (inactive)
[51]
  GI50: 49.3 µM (inactive)
[52]
  GI50: > 100 µM (inactive)
[53]
  GI50: > 100 µM (inactive)

## O=C(O)c1ccccc1C(=O)NCC1S(=O)(=O)OCCOS1(=O)=O
[1]
  GI50: > 100 µM (inactive)
[2]
  GI50: > 100 µM (inactive)
[3]
  GI50: > 100 µM (inactive)
[4]
  GI50: > 100 µM (inactive)
[5]
  GI50: > 100 µM (inactive)
[6]
  GI50: > 100 µM (inactive)
[54]
  GI50: > 100 µM (inactive)
[7]
  GI50: > 100 µM (inactive)
[8]
  GI50: > 100 µM (inactive)
[9]
  GI50: > 100 µM (inactive)
[10]
  GI50: > 100 µM (inactive)
[11]
  GI50: > 100 µM
[12]
  GI50: > 100 µM (inactive)
[13]
  GI50: > 100 µM (inactive)
[14]
  GI50: > 100 µM (inactive)
[15]
  GI50: > 100 µM (inactive)
[16]
  GI50: > 100 µM (inactive)
[17]
  GI50: > 100 µM (inactive)
[18]
  GI50: > 100 µM (inactive)
[19]
  GI50: > 100 µM (inactive)
[20]
  GI50: > 100 µM (inactive)
[21]
  GI50: > 100 µM (inactive)
[22]
  GI50: > 100 µM (inactive)
[23]
  GI50: > 100 µM (inactive)
[24]
  GI50: > 100 µM (inactive)
[25]
  GI50: > 100 µM (inactive)
[26]
  GI50: > 100 µM (inactive)
[55]
  GI50: > 100 µM (inactive)
[27]
  GI50: > 100 µM (inactive)
[28]
  GI50: > 100 µM (inactive)
[29]
  GI50: > 100 µM (inactive)
[30]
  GI50: > 100 µM (inactive)
[31]
  GI50: > 100 µM (inactive)
[32]
  GI50: > 100 µM (inactive)
[33]
  GI50: > 100 µM (inactive)
[34]
  GI50: > 100 µM (inactive)
[35]
  GI50: > 100 µM (inactive)
[36]
  GI50: > 100 µM (inactive)
[37]
  GI50: > 100 µM (inactive)
[38]
  GI50: > 100 µM (inactive)
[39]
  GI50: > 100 µM (inactive)
[40]
  GI50: > 100 µM (inactive)
[41]
  GI50: > 100 µM (inactive)
[42]
  GI50: > 100 µM (inactive)
[43]
  GI50: > 100 µM (inactive)
[44]
  GI50: > 100 µM (inactive)
[56]
  GI50: > 100 µM (inactive)
[45]
  GI50: > 100 µM (inactive)
[46]
  GI50: > 100 µM (inactive)
[47]
  GI50: > 100 µM (inactive)
[48]
  GI50: > 100 µM (inactive)
[49]
  GI50: > 100 µM (inactive)
[50]
  GI50: > 100 µM (inactive)
[51]
  GI50: > 100 µM (inactive)
[52]
  GI50: > 100 µM (inactive)
[57]
  GI50: > 100 µM (inactive)
[53]
  GI50: > 100 µM (inactive)
